For one data set, the target named is hTRPV4 (Homo sapiens, UniProt Q9HBA0). Kind of data set: hTRPV4 patch clamp selectivity. The format is cell-based. The conditions noted are these: Table 2.
The target in data set [1] is T1, hTRPA1 (Homo sapiens, UniProt O75762, K186N).
T1 construct: expressed in transfected cells; host or cells: HEK293/TREx (Invitrogen), induced with tetracycline
Description: TRPA1 patch clamp (perforated patch, AITC-activated current). The format is cell-based. A digest of the protocol:
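HEK293 TREx cells expressing the channel were recorded by amphotericin perforated patch at −40 mV holding, with 400 ms ramps from −120 to +100 mV every 5 s. Current was activated with 5 μM AITC in pH 7.4 external solution, and block of inward and outward current was measured at −80 and +80 mV with AITC still present.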
On the technique in general: The patch-clamp technique gives a direct electrical read-out from membranes.

For data set [2], the system named is BOO model of incontinence. Particulars: BOO rats, intravesical infusion.
Description: Efficacy of the varying doses of TRPA1 inhibitory compound were compared to controls administered excipients alone (sham control). Efficacy was also compared to rats administered a positive control, such as atropine.
Female Sprague Dawley rats were used in these studies. Rats underwent surgical partial bladder outlet obstruction (BOO) or sham surgery. Five weeks after BOO (or sham) surgery, an intravesical catheter was surgically implanted into the dome of the bladder for conducting urodynamic studies. One week after catheter implantation (6 weeks after BOO or sham), urodynamic studies began. […] An analytic balance beneath the wire-bottom animal cage measured the amount of urine voided during continuous cystometry. […]
For each CMG cycle, the following parameters were assessed: infused volume (the amount of saline or drug infused for each CMG cycle); void volume (the amount of urine voided by the animal for each CMG cycle); minimum pressure (minimum pressure during filling); threshold pressure (pressure prior to micturition when bladder pressure begins to rise steeply); average pressure (average pressure during filling and before threshold); maximum pressure; intermicturition interval (time between two subsequent voiding events); urine flow rate index.
Data set [3] concerns CFA model of inflammatory pain. Kind of data set: CFA model of inflammatory pain. As to the method: FIG. 4 summarizes data obtained following testing of Compound 200 in the CFA model. Naive rats were pretested for sensitivity to a heat stimulus in the Hargreaves apparatus. The next day, 100 μL of complete Freund's adjuvant (CFA) was injected into the plantar surface of the right hindpaw. Two days later, in the morning, the rats were again pretested. In the afternoon, rats were injected with either vehicle control or with drug (TRPA1 inhibitor 200 or the non-steroidal anti-inflammatory diclofenac). Drugs or vehicle were injected intraperitoneally, and 45 minutes later rats were tested for hyperalgesia by applying the heat source to the CFA injected and uninjected hindpaw and measuring latency to withdrawal.

For data set [4], the target named is T1, hTRPA1. Description: High throughput Ca2+ fluorescence (Fluo4) assay, AITC stimulation. It is filed as cell-based. Particulars: Table 2; read-out: hTRPA1 Fluor IC50. In short, it runs like this:
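Tetracycline-induced HEK293/TREx cells loaded with 1 μM Fluo4/AM for 60 min at room temperature. Compound added for 2 min after a 4-frame baseline, then AITC; fluorescence followed ~3 min.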

The values below come from patent US7671061B2, “Methods and compositions for treating pain” (Hydra Biosciences, Inc., priority 2005, dated 2010).

T1 sequence (O75762 whole entry K186N): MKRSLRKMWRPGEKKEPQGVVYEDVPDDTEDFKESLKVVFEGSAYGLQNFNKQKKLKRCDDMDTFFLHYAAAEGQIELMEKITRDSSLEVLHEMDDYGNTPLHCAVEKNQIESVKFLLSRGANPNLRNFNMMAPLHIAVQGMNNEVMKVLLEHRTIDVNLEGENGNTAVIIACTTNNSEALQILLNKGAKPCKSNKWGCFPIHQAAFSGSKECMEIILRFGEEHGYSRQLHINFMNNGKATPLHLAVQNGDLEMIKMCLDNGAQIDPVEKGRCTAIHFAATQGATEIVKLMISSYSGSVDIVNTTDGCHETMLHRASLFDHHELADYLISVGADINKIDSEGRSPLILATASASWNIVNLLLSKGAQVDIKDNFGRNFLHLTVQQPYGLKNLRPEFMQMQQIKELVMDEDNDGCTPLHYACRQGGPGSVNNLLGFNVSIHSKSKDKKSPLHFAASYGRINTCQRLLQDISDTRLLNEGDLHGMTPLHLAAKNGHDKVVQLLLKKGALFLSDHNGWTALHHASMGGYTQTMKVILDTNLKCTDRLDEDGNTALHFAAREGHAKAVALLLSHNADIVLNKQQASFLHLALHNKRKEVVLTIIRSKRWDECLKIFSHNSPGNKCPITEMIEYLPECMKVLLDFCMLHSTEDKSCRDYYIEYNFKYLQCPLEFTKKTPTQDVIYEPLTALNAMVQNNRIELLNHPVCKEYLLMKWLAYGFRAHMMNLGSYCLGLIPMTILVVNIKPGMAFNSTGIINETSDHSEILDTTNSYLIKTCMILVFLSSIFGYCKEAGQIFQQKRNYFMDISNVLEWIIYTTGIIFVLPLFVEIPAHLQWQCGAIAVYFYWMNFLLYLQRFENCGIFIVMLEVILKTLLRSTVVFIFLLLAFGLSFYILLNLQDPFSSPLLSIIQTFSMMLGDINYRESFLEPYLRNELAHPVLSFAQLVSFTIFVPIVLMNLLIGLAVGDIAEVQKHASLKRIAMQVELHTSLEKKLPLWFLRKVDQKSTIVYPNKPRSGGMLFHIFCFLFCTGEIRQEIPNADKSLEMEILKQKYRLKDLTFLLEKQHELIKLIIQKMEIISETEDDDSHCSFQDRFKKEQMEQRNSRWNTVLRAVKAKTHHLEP
hTRPV4, sequence (Q9HBA0 whole entry): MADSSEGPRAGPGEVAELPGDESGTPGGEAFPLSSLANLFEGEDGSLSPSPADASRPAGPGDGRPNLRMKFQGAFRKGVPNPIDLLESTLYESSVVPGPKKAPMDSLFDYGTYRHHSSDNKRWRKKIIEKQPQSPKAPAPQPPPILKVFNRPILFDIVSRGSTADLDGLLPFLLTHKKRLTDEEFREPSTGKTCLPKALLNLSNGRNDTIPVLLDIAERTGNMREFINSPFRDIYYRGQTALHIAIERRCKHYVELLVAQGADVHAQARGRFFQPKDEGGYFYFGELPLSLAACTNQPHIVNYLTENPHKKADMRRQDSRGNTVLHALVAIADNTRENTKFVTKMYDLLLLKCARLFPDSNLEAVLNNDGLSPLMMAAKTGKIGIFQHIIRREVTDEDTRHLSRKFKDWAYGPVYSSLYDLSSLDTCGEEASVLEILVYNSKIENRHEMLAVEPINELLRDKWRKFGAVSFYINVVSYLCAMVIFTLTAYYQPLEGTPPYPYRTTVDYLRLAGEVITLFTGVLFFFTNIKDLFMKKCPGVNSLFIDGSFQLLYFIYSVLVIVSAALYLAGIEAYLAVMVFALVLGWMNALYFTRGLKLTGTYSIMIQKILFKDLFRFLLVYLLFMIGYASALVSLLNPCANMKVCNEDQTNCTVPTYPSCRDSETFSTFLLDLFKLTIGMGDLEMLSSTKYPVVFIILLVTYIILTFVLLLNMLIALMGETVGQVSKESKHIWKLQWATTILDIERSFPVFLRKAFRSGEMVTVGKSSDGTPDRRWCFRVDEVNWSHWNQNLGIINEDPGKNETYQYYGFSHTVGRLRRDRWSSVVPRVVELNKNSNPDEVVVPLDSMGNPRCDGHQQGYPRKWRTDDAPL

For `CC(C)c1ccc(NC(=O)Cn2cnc3c2c(=O)n(C)c(=O)n3C)cc1` [Compound 200, 2-(1,3-dimethyl-2,6-dioxo-1,2,3,6-tetrahydropurin-7-yl)-N-(4-isopropylphenyl)acetamide], the IC50 at hTRPV4 is greater than 10 µM; on hTRPA1 [1] (Table 2, inward current, read-out: hTRPA1 Patch Inwd IC50), no more than 5 µM; on hTRPA1 [1] (stated in Example 4 (1000 nM=355 ng/mL), read-out: IC50 against TRPA1), 1 µM; at hTRPA1 [4], no more than 5 µM. Besides, the “selective for TRPA1 over TRPV4” value at hTRPV4 was no less than 5 fold. For the same compound, the maximum bladder pressure result in data set [2] was “decreased”. Besides, in data set [2], the threshold bladder pressure entry was “decreased”. Also, in data set [3] (IP), the “efficacy compared with diclofenac” value is reported as “superior to diclofenac”. The thermal hyperalgesia result in data set [3] (IP, 45 minutes before test, CFA injected paw) is given as “reduced”. In addition, the toxicity result in data set [3] (rat, in vivo, ip) is recorded as “without toxicity”. In data set [3] (uninjected hindpaw), the “control paw (uninflamed) sensation” value is “not affected”.

The IC50 is the concentration at which inhibition is half-maximal.
